From publication PMC7047428 (ACS Central Science, 2020)

How the values were obtained:
D2R WT [1] = target: T1, D2R WT (Homo sapiens, UniProt P14416); experiment: Split luciferase GloSensor cAMP assay, activation of Gi protein; format: cell-based; settings: for G protein EC50: wild type D2R, HEK 293T, cAMP GloSensor
D2R WT [2] = target: T1, D2R WT; experiment: Tango arrestin recruitment assay; format: cell-based; settings: wild type D2R, HTLA cells

T1 sequence (P14416 whole entry): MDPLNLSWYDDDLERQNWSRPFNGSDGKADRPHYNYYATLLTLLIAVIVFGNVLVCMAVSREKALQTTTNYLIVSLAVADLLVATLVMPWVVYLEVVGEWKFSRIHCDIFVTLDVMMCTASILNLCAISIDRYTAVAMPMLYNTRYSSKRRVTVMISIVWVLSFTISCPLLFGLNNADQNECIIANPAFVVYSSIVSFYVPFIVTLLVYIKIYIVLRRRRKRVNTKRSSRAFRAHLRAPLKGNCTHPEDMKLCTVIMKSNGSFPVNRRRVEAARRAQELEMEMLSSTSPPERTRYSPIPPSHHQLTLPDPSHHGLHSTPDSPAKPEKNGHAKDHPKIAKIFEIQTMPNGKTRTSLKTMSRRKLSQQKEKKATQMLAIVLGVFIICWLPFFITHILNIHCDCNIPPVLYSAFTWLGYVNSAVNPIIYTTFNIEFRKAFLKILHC

Compound: Oc1c(CN2CCN(c3ccccn3)CC2)cc(F)c2cccnc12 [MLS-d1, 5-Fluoro-7-((4-(pyridin-2-yl)piperazin-1-yl)methyl)quinolin-8-ol]
- EC50 (D2R WT [1]): 18.6 nM

Compound: O=[N+]([O-])c1cc(CN2CCN(c3ccccn3)CC2)c(O)c2ncccc12 [MLS-d4, 5-Nitro-7-((4-(pyridin-2-yl)piperazin-1-yl)methyl)quinolin-8-ol]
- G protein EC50 (D2R WT [1]): did not show activation
- β-arrestin EC50 (D2R WT [2]): did not show activation

Compound: Oc1c(CN2CCN(c3ccccn3)CC2)ccc2cccnc12 [MLS-d2, 7-((4-(Pyridin-2-yl)piperazin-1-yl)methyl)quinolin-8-ol]
- EC50 (D2R WT [1]): 95 nM

Compound: Oc1c(CN2CCN(c3ccccn3)CC2)cc(Br)c2cccnc12 [MLS-d3, 5-Bromo-7-((4-(pyridin-2-yl)piperazin-1-yl)methyl)quinolin-8-ol]
- G protein EC50 (D2R WT [1]): completely inactive
- β-arrestin EC50 (D2R WT [2]): completely inactive
